Experimental data as given in publication PMC4965013, “Open Source Drug Discovery with the Malaria Box Compound Collection for Neglected Diseases and Beyond” (PLoS Pathogens, 2016).

How the values were obtained:
[1] = system: P. falciparum 3D7 trophozoites; test: Metabolomic fingerprint profiling LC-MS; type: cell-based, Plasmodium falciparum; set-up: UDP-D-glucose / ADP-D-glucose: unit not given here; conditions: for Acetyllysine / N-acetyl-L-ornithine / N-carbamoyl-L-aspartate / NADPH / dAMP / dCMP / dTDP / dTMP / dTTP / dihydroorotate / orotate / DLH / DLS/SDL/SID / PD / PEE / PVNF / 3-phosphoglycerate / ADP-D-glucose / ATP / CDP / D-sedoheptulose-1/7-phosphate / FAD / GMP / NAD+ / NADP+ / Octoluse Bisphosphate / Pyroglutamic acid / UDP-D-glucose / UDP-D-glucuronate / UDP-N-acetyl-glucosamine / UDP / UMP / UTP / a-ketoglutarate / citrate/isocitrate / cytidine / dATP / dGMP/AMP / fumarate / glucose-1/6-phosphate / glycerate / guanine / guanosine / hypoxanthine / indole / inosine / nicotinate / ornithine / phosphoenolpyruvate / pyruvate / ribose-phosphate / sarcosine/alanine / sn-glycerol-3-phosphate / succinate/methylmalonic acid / uridine / xanthosine: S2 Table Metabolomics; for Acetyllysine: metabolite Acetyllysine; for N-acetyl-L-ornithine: metabolite N-acetyl-L-ornithine; for N-carbamoyl-L-aspartate: metabolite N-carbamoyl-L-aspartate; for NADPH: metabolite NADPH; for dAMP: metabolite dAMP; for dCMP: metabolite dCMP; for dTDP: metabolite dTDP; for dTMP: metabolite dTMP; for dTTP: metabolite dTTP; for dihydroorotate: metabolite dihydroorotate; for orotate: metabolite orotate; for DLH: peptide DLH; for DLS/SDL/SID: peptide DLS/SDL/SID; for PD: peptide PD; for PEE: peptide PEE; for PVNF: peptide PVNF; for 3-phosphoglycerate: metabolite 3-phosphoglycerate; for ADP-D-glucose: metabolite ADP-D-glucose; for ATP: metabolite ATP; for CDP: metabolite CDP; for CDP / D-sedoheptulose-1/7-phosphate / GMP / Octoluse Bisphosphate / UDP / UMP / UTP / citrate/isocitrate / dGMP/AMP / fumarate / glucose-1/6-phosphate / glycerate / guanine / guanosine / inosine / pyruvate / sarcosine/alanine / succinate/methylmalonic acid / uridine / xanthosine: change in metabolite level after compound treatment; for D-sedoheptulose-1/7-phosphate: metabolite D-sedoheptulose-1/7-phosphate; for FAD: metabolite FAD; for GMP: metabolite GMP; for NAD+: metabolite NAD+; for NADP+: metabolite NADP+; for Octoluse Bisphosphate: metabolite Octoluse Bisphosphate; for Pyroglutamic acid: metabolite Pyroglutamic acid; for UDP-D-glucose: metabolite UDP-D-glucose; for UDP-D-glucuronate: metabolite UDP-D-glucuronate; for UDP-N-acetyl-glucosamine: metabolite UDP-N-acetyl-glucosamine; for UDP: metabolite UDP; for UMP: metabolite UMP; for UTP: metabolite UTP; for a-ketoglutarate: metabolite a-ketoglutarate; for citrate/isocitrate: metabolite citrate/isocitrate; for cytidine: metabolite cytidine; for dATP: metabolite dATP; for dGMP/AMP: metabolite dGMP/AMP; for fumarate: metabolite fumarate; for glucose-1/6-phosphate: metabolite glucose-1/6-phosphate; for glycerate: metabolite glycerate; for guanine: metabolite guanine; for guanosine: metabolite guanosine; for hypoxanthine: metabolite hypoxanthine; for indole: metabolite indole; for inosine: metabolite inosine; for 2_3-Diphosphoglyceric acid / 4-phosphopantothenate / 6-phospho-D-gluconate / FMN / IMP / Pyrophosphate / Sedoheptoluse bisphosphate / cyclic-AMP / glutathione disulfide / lactate / myo-inositol: metabolite level change after treatment; for nicotinate: metabolite nicotinate; for ornithine: metabolite ornithine; for phosphoenolpyruvate: metabolite phosphoenolpyruvate; for pyruvate: metabolite pyruvate; for ribose-phosphate: metabolite ribose-phosphate; for sarcosine/alanine: metabolite sarcosine/alanine; for sn-glycerol-3-phosphate: metabolite sn-glycerol-3-phosphate; for succinate/methylmalonic acid: metabolite succinate/methylmalonic acid; for uridine: metabolite uridine; for xanthosine: metabolite xanthosine
P. falciparum = test: EC50 listed in S2 Table Metabolomics (used to set the concentration tested); type: cell-based; conditions: Plasmodium falciparum; EC50 used for Factor_XEC50 in metabolomics; read-out: EC50_nM

What does the source list for Cc1cc(NC(=O)C2c3ccccc3C(=O)N(CC(C)C)C2c2cccs2)no1 (stereo not shown) [MMV006429]?
Acetyllysine [1]: -4.876; N-acetyl-L-ornithine [1]: -3.5354; N-carbamoyl-L-aspartate [1]: -2.585; NADPH [1]: 1.978; dAMP [1]: 2.292; dCMP [1]: 1.167; dTDP [1]: 1.627; dTMP [1]: 3.344; dTTP [1]: 1.446; dihydroorotate [1]: -3.6651; orotate [1]: -0.181; DLH [1]: -5.907; DLS/SDL/SID [1]: -4.536; PD [1]: -2.845; PEE [1]: -3.543; PVNF [1]: -6.513; 3-phosphoglycerate [1]: 0.34; ADP-D-glucose [1]: -0.1376; ATP [1]: -1.344; CDP [1]: -0.4641; D-sedoheptulose-1/7-phosphate [1]: -1.187; FAD [1]: -1.625; GMP [1]: -1.884; NAD+ [1]: -0.4933; NADP+ [1]: -0.001455; Octoluse Bisphosphate [1]: -2.069; Pyroglutamic acid [1]: 0.2334; UDP-D-glucose [1]: -0.07653; UDP-D-glucuronate [1]: -0.002659; UDP-N-acetyl-glucosamine [1]: 0.06871; UDP [1]: -1.216; UMP [1]: -0.6265; UTP [1]: -1.299; a-ketoglutarate [1]: 0.2879; citrate/isocitrate [1]: -0.09158; cytidine [1]: 0.5285; dATP [1]: 0.0138; dGMP/AMP [1]: -0.6616; fumarate [1]: -0.1647; glucose-1/6-phosphate [1]: -1.368; glycerate [1]: -0.8344; guanine [1]: 0.5068; guanosine [1]: 1.214; hypoxanthine [1]: 0.09881; indole [1]: 0.1757; inosine [1]: 0.2569; 2_3-Diphosphoglyceric acid [1]: -1.036; 4-phosphopantothenate [1]: -0.6242; 6-phospho-D-gluconate [1]: -0.2953; FMN [1]: -0.07748; IMP [1]: -0.08419; Pyrophosphate [1]: -1.06; Sedoheptoluse bisphosphate [1]: -0.9732; cyclic-AMP [1]: -0.7986; glutathione disulfide [1]: -0.4517; lactate [1]: -0.7779; myo-inositol [1]: -1.114; nicotinate [1]: 0.9425; ornithine [1]: -0.1056; phosphoenolpyruvate [1]: 0.447; pyruvate [1]: -2.0102; ribose-phosphate [1]: -0.6145; sarcosine/alanine [1]: -1.58; sn-glycerol-3-phosphate [1]: 1.267; succinate/methylmalonic acid [1]: 0.2625; uridine [1]: 1.463; xanthosine [1]: -1.351; EC50 (P. falciparum): 32.8 nM

With CCCN(CCC)CC(O)COc1ccccc1C(=O)Nc1ccccc1 (stereo not shown) [MMV006455] as the compound, how does the Acetyllysine [1] read?
The Acetyllysine was -1.84.

And the N-acetyl-L-ornithine [1]?
Its N-acetyl-L-ornithine is -1.412.

And the N-carbamoyl-L-aspartate [1]?
Its N-carbamoyl-L-aspartate is -1.358.

What about the NADPH [1] of the same compound?
Its NADPH is 1.245.

What about the dAMP [1] of the same compound?
Its dAMP is 1.1553.

And the dCMP [1]?
The dCMP was -0.6709.

And the dTDP [1]?
The dTDP was 0.7128.

And the dTMP [1]?
The dTMP was 1.286.

And the dTTP [1]?
Its dTTP is -0.4381.

What about the dihydroorotate [1] of the same compound?
The dihydroorotate was -1.042.

And the orotate [1]?
The orotate was -1.326.

What about the DLH [1] of the same compound?
The DLH was -3.333.

What about the DLS/SDL/SID [1] of the same compound?
The DLS/SDL/SID was -1.242.

What about the PD [1] of the same compound?
The PD was -1.741.

And the PEE [1]?
Its PEE is -6.259.

And the PVNF [1]?
Its PVNF is -1.503.

What about the 3-phosphoglycerate [1] of the same compound?
The 3-phosphoglycerate was 0.4787.

And the ADP-D-glucose [1]?
Its ADP-D-glucose is 0.3541.

What about the ATP [1] of the same compound?
The ATP was 0.3304.

What about the CDP [1] of the same compound?
Its CDP is 0.5091.

And the D-sedoheptulose-1/7-phosphate [1]?
Its D-sedoheptulose-1/7-phosphate is 0.2206.

What about the FAD [1] of the same compound?
Its FAD is 0.7675.

And the GMP [1]?
The GMP was -0.1404.

What about the “NAD+” value [1] of the same compound?
The value was 0.6496.

And the “NADP+” value [1]?
The value was 1.103.

And the “Octoluse Bisphosphate” value [1]?
Its value is 0.1196.

What about the Pyroglutamic acid [1] of the same compound?
Its Pyroglutamic acid is -0.5503.

And the UDP-D-glucose [1]?
The UDP-D-glucose was 0.16.

What about the UDP-D-glucuronate [1] of the same compound?
The UDP-D-glucuronate was -0.0808.

And the UDP-N-acetyl-glucosamine [1]?
The UDP-N-acetyl-glucosamine was 0.351.

And the UDP [1]?
Its UDP is 0.8505.

What about the UMP [1] of the same compound?
The UMP was -0.5223.

And the UTP [1]?
The UTP was -1.889.

And the a-ketoglutarate [1]?
Its a-ketoglutarate is -0.6936.

What about the citrate/isocitrate [1] of the same compound?
The citrate/isocitrate was -1.1034.

What about the cytidine [1] of the same compound?
The cytidine was 1.29.

And the dATP [1]?
The dATP was -1.015.

And the dGMP/AMP [1]?
The dGMP/AMP was 0.4722.

And the fumarate [1]?
The fumarate was -1.1903.

And the glucose-1/6-phosphate [1]?
The glucose-1/6-phosphate was 2.348.

And the glycerate [1]?
The glycerate was 0.5071.

And the guanine [1]?
Its guanine is 0.09569.

What about the guanosine [1] of the same compound?
The guanosine was -0.9351.

What about the hypoxanthine [1] of the same compound?
The hypoxanthine was 0.1926.

And the indole [1]?
The indole was -0.2645.

And the inosine [1]?
The inosine was 0.3717.

And the 2_3-Diphosphoglyceric acid [1]?
The 2_3-Diphosphoglyceric acid was 0.5499.

And the 4-phosphopantothenate [1]?
Its 4-phosphopantothenate is 0.373.

What about the 6-phospho-D-gluconate [1] of the same compound?
The 6-phospho-D-gluconate was 0.458.

What about the FMN [1] of the same compound?
The FMN was 0.8429.

And the IMP [1]?
Its IMP is 0.8206.

What about the Pyrophosphate [1] of the same compound?
The Pyrophosphate was -0.6263.

What about the Sedoheptoluse bisphosphate [1] of the same compound?
The Sedoheptoluse bisphosphate was 0.2316.

And the cyclic-AMP [1]?
The cyclic-AMP was 0.1549.

And the glutathione disulfide [1]?
Its glutathione disulfide is 0.487.

What about the lactate [1] of the same compound?
Its lactate is 1.338.

What about the myo-inositol [1] of the same compound?
Its myo-inositol is 3.347.

And the nicotinate [1]?
Its nicotinate is 0.09812.

What about the ornithine [1] of the same compound?
Its ornithine is -0.2237.

And the phosphoenolpyruvate [1]?
Its phosphoenolpyruvate is 0.01215.

What about the pyruvate [1] of the same compound?
Its pyruvate is 0.467.

What about the ribose-phosphate [1] of the same compound?
The ribose-phosphate was -0.04809.

And the sarcosine/alanine [1]?
Its sarcosine/alanine is -0.7349.

What about the sn-glycerol-3-phosphate [1] of the same compound?
The sn-glycerol-3-phosphate was -0.3619.

And the succinate/methylmalonic acid [1]?
The succinate/methylmalonic acid was -0.7549.

What about the uridine [1] of the same compound?
Its uridine is 0.2304.

What about the xanthosine [1] of the same compound?
The xanthosine was -2.143.

And the EC50 (P. falciparum)?
The EC50 was 196 nM.
